Data on one compound can be found in patent US6540792B1, “Cellulose fiber-containing structure” (priority 1999, dated 2003).

The data set is described as follows: Inorganic value/organic value ratio calculated by the organic concept (Fujita). As to conditions: concluded from the inorganic value/organic value ratio. The source says: The “inorganic value/organic value ratio” in this invention is an indicator contrived by Minoru Fujita, to express the polarity of various organic compounds in view of organic concept [see Revised Edition, Science of Chemical Experiments, Organic Chemistry, Kawade shobo (1971)]. For the ratio, the organic value of one carbon (C) atom is decided as 20, and the inorganic and organic values of various polar groups are decided in reference to it, as shown in Table 1. The inorganic value/organic value ratio refers to the ratio of the sum of inorganic values to the sum of organic values.
According to this organic concept, for example, the inorganic value/organic value ratio of polyethylene terephthalate can be calculated as 0.7. In this invention, attention is paid to the affinity between synthetic fibers and an antimicrobial agent based on the value calculated according to the organic concept, and an antimicrobial agent with the inorganic value/organic value ratio kept in a predetermined range is caused to adhere to or to be exhausted and diffused into the synthetic fibers.
For example, in the case of 2,3,5,6-tetrachloro-4-hydroxypyridine, since it has one benzene nucleus, four —Cl groups, one —OH group and one —NR2 group, the inorganic value is 265. On the other hand, since it has five C (carbon) atoms and four —Cl groups, the organic value is 180. […]

Structures are written as SMILES.

Regarding `[Na+].[O-][n+]1ccccc1[S-]` [2-pyridylthiol-1-oxide sodium], the affinity to polyesters result was “poor”.
